Measured values published in PMC5971037, “Synthesis and evaluation of antimicrobial, antitubercular and anticancer activities of 2-(1-benzoyl-1H-benzo[d]imidazol-2-ylthio)-N-substituted acetamides” (Chemistry Central Journal, 2018).
pIC50: −log10 of the molar value. Converted amounts (≈) assume the structure as drawn. Like-named read-outs stand apart in the source and are kept apart here.

How the values were obtained:
[1] = test system: S. typhi; experiment: Tube dilution MIC; assay type: cell-based; conditions: Salmonella enterica, 24 h, read-out: MIC S. typhi
[2] = test system: B. cereus; experiment: MBC by subculturing; assay type: cell-based
Description: (§1) The minimum bactericidal concentration (MBC) and minimum fungicidal concentration (MFC) of the synthesized benzimidazole derivatives was determined by subculturing 100 µl of culture from each tube that remained clear in MIC determination onto sterilized petri-plates containing fresh agar medium. The petri-plates were incubated and analyzed for microbial growth visually.

[3] = test system: B. subtilis; experiment: MBC by subculturing; assay type: cell-based
Description: as §1

[4] = test system: E. coli; experiment: MBC by subculturing; assay type: cell-based; conditions: Escherichia coli
Description: as §1

[5] = test system: S. aureus; experiment: MBC by subculturing; assay type: cell-based; conditions: Staphylococcus aureus
Description: as §1

[6] = test system: S. typhi; experiment: MBC by subculturing; assay type: cell-based; conditions: Salmonella enterica, read-out: MBC S. typhi
Description: as §1

[7] = test system: A. niger; experiment: MFC by subculturing; assay type: cell-based
Description: as §1

[8] = test system: C. albicans; experiment: MFC by subculturing; assay type: cell-based
Description: as §1

[9] = test system: M. tuberculosis H37Rv (NCFT/TB/537); experiment: Well diffusion susceptibility test (zone of inhibition); assay type: cell-based; conditions: Mycobacterium tuberculosis, 672 h, read-out: Diameter of zone of inhibition against H37Rv (NCFT/TB/537), wells of 8 mm, 50 µg/ml test compound, 25 µg/ml standard drug, 4 weeks, NA = no activity
[10] = test system: M. tuberculosis H37Rv; experiment: MIC by microplate alamar blue assay; assay type: cell-based; conditions: Mycobacterium tuberculosis, NA = no activity, read-out: MIC against M. tuberculosis H37Rv
[11] = test system: M. tuberculosis H37Rv; experiment: Minimum lethal concentration (MLC); assay type: cell-based; conditions: Mycobacterium tuberculosis, NA = no activity, read-out: MLC against M. tuberculosis H37Rv
[12] = test system: MCF7 (human breast cancer) cell line; experiment: Sulforhodamine-B (SRB) cytotoxicity assay; assay type: cell-based
[13] = test system: HCT116 (human colorectal) cell line; experiment: Sulforhodamine-B (SRB) cytotoxicity assay; assay type: cell-based
[14] = test system: Gram positive as well as Gram negative bacterial species; experiment: Tube dilution MIC, bacteria overall; assay type: cell-based
[15] = test system: S. aureus; experiment: Tube dilution MIC; conditions: Staphylococcus aureus, 24 h, read-out: MIC S. aureus
[16] = test system: B. cereus; experiment: Tube dilution MIC; conditions: Bacillus cereus, 24 h, read-out: MIC B. cereus
[17] = test system: B. subtilis; experiment: Tube dilution MIC; conditions: Bacillus subtilis, 24 h, read-out: MIC B. subtilis
[18] = test system: E. coli; experiment: Tube dilution MIC; conditions: Escherichia coli, 24 h, read-out: MIC E. coli
[19] = test system: C. albicans; experiment: microbe, parasite or virus in culture; conditions: Candida albicans, 48 h, read-out: MIC C. albicans
[20] = test system: A. niger; experiment: microbe, parasite or virus in culture; conditions: Aspergillus niger, 168 h, read-out: MIC A. niger
[21] = In vivo LD50, ED50 and toxic dose in mice models; conditions: mouse, dose that killed 50% of the mice population within the group
Description: The LD50 and ED50 were determined for the active compounds in mice models infected with Mycobacterium H37Rv (Table 4). […] Thus, ED50 of 1.34 mg/kg was considered safe for each of the compounds. It was observed that this dose was effective and safe for mice in different groups before infecting the mice models with specific TB bacteria as no mortality of any single animal was recorded.
The LD50 (lethal dose) and ED50 (optimum/effective dose) doses were determined for the active compounds in mice models infected with Mycobacterium H37Rv via ethical permission no., NCFT/EC/16/2313 assigned to Collaborative Research Group (CRG), NCFT, New Delhi, India.

[22] = target: mycobacterial isocitrate lyase (Mycobacterium tuberculosis, UniProt P9WKK7); experiment: Mycobacterial isocitrate lyase (ICL) assay; assay type: biochemical, M. tuberculosis H37Rv; conditions: read-out: Percent inhibition of enzyme, M. ICL activity
mycobacterial isocitrate lyase, sequence (P9WKK7 whole entry): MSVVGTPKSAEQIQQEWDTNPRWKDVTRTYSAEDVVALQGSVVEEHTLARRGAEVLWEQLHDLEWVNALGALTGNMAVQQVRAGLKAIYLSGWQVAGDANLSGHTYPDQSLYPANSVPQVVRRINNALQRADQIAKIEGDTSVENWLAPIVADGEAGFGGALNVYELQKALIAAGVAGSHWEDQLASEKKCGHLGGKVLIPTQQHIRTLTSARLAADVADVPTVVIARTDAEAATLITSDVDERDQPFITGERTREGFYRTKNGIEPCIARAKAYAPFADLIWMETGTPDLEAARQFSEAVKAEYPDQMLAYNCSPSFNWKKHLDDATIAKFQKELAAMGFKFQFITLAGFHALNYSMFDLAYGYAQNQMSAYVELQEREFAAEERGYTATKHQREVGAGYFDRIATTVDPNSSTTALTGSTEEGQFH
Description: The compounds found potent in in vivo evaluation were assayed for inhibition of mycobacterial enzymes viz., isocitrate lyase, pantothenate synthetase and chorismate mutase.
Isocitrate lyase activity was assayed according to the protocol reported by Dixon and Kornberg (glyoxylate phenyl hydrazone formation) at 10 μM of the compounds.

[23] = Bacillus cereus; read-out: MBC B. cereus
[24] = Bacillus subtilis; read-out: MBC B. subtilis
[25] = Aspergillus niger; read-out: MFC A. niger
[26] = Candida albicans; read-out: MFC C. albicans
[27] = SRB assay, MCF7 cell line, read-out: IC50 MCF7
[28] = HCT-116, SRB assay, HCT116 cell line, read-out: IC50 HCT116
[29] = Bacillus cereus, read-out: MBC B. cereus
[30] = Bacillus subtilis, read-out: MBC B. subtilis
[31] = Aspergillus niger, read-out: MFC A. niger
[32] = Candida albicans, read-out: MFC C. albicans

| Compound | MIC [1] [µM] | MBC [2, 23] [µg/mL] | MBC [3, 24] [µg/mL] | MBC [4] [µg/mL] | MBC [5] [µg/mL] | MBC [6] [µg/mL] | MFC [7, 25] [µg/mL] | MFC [8, 26] [µg/mL] | zone of inhibition at 50 µg/mL [9] [mm] | MIC [10] [µg/mL] | MBC [11] [µg/mL] | pIC50 [12, 27] | pIC50 [13, 28] | MIC against Gram positive as well as Gram negative bacterial species [14] [µM/ml] | MIC [15] [µM] | MIC [16] [µM] | MIC [17] [µM] | MIC [18] [µM] | MIC [19] [µM] | MIC [20] [µM] | further results |
| --- | --- | --- | --- | --- | --- | --- | --- | --- | --- | --- | --- | --- | --- | --- | --- | --- | --- | --- | --- | --- | --- |
| O=C(CSc1nc2ccccc2n1C(=O)c1ccccc1)Nc1ccccc1Br [Compound 7, 2-(1-Benzoyl-1H-benzo[d]imidazol-2-ylthio)-N-(2-bromophenyl)acetamide] | 27 (≈ 12.6 µg/mL) | > 50 | > 50 | 50 (≈ 107 µM) | 50 (≈ 107 µM) | > 50 | > 50 | 50 (≈ 107 µM) | 10 | 15 (≈ 32.2 µM) | 28 (≈ 60 µM) | 4.25 | 4.02 | 0.027 | 27 (≈ 12.6 µg/mL) | 27 (≈ 12.6 µg/mL) | 27 (≈ 12.6 µg/mL) | 27 (≈ 12.6 µg/mL) | 27 (≈ 12.6 µg/mL) | 27 (≈ 12.6 µg/mL) |  |
| O=C(CSc1nc2ccccc2n1C(=O)c1ccccc1)Nc1cc(Cl)ccc1Cl [Compound 6, 2-(1-Benzoyl-1H-benzo[d]imidazol-2-ylthio)-N-(2,5-dichlorophenyl)acetamide] | 27 (≈ 12.3 µg/mL) |  |  | > 50 | > 50 | 25 (≈ 54.8 µM) |  |  | > 20 | 12.5 (≈ 27.4 µM) | 25 (≈ 54.8 µM) |  |  |  | 27 (≈ 12.3 µg/mL) | 27 (≈ 12.3 µg/mL) | 27 (≈ 12.3 µg/mL) | 27 (≈ 12.3 µg/mL) | 14 (≈ 6.39 µg/mL) | 27 (≈ 12.3 µg/mL) | MBC [2, 29]: > 50 µg/mL; MBC [3, 30]: > 50 µg/mL; MFC [7, 31]: > 50 µg/mL; MFC [8, 32]: 50 µg/mL (≈ 110 µM); LD50 [21]: 1.86 mg/kg; inhibition at 10 µM [22]: 56.8%; pIC50 ([12]; MCF7, read-out: IC50 MCF7): 4.05; pIC50 ([13]; HCT-116, read-out: IC50 HCT116): 4.08 |
| O=C(CSc1nc2ccccc2n1C(=O)c1ccccc1)Nc1ccc(Cl)cc1 [Compound 15, 2-(1-Benzoyl-1H-benzo[d]imidazol-2-ylthio)-N-(4-chlorophenyl)acetamide] | 59 (≈ 24.9 µg/mL) |  |  | 50 (≈ 119 µM) | 50 (≈ 119 µM) | > 50 |  |  | > 20 | 12.5 (≈ 29.6 µM) | 25 (≈ 59.3 µM) |  |  |  | 30 (≈ 12.7 µg/mL) | 30 (≈ 12.7 µg/mL) | 30 (≈ 12.7 µg/mL) | 30 (≈ 12.7 µg/mL) | 30 (≈ 12.7 µg/mL) | 30 (≈ 12.7 µg/mL) | MBC [2, 29]: > 50 µg/mL; MBC [3, 30]: > 50 µg/mL; MFC [7, 31]: > 50 µg/mL; MFC [8, 32]: > 50 µg/mL; LD50 [21]: 2.67 mg/kg; inhibition at 10 µM [22]: 61.6%; pIC50 ([12]; MCF7, read-out: IC50 MCF7): 4.02; pIC50 ([13]; HCT-116, read-out: IC50 HCT116): 4.23 |
| O=C(CSc1nc2ccccc2n1C(=O)c1ccccc1)Nc1cccc([N+](=O)[O-])c1 [Compound 10, 2-(1-Benzoyl-1H-benzo[d]imidazol-2-ylthio)-N-(3-nitrophenyl)acetamide] | 29 (≈ 12.5 µg/mL) |  |  | > 50 | 50 (≈ 116 µM) | 50 (≈ 116 µM) |  |  | > 20 | 12.5 (≈ 28.9 µM) | 25 (≈ 57.8 µM) |  |  |  | 29 (≈ 12.5 µg/mL) | 29 (≈ 12.5 µg/mL) | 29 (≈ 12.5 µg/mL) | 29 (≈ 12.5 µg/mL) | 15 (≈ 6.49 µg/mL) | 29 (≈ 12.5 µg/mL) | MBC [2, 29]: > 50 µg/mL; MBC [3, 30]: 50 µg/mL (≈ 116 µM); MFC [7, 31]: > 50 µg/mL; MFC [8, 32]: > 50 µg/mL; LD50 [21]: 1.83 mg/kg; inhibition at 10 µM [22]: 61.2%; pIC50 ([12]; MCF7, read-out: IC50 MCF7): 4.10; pIC50 ([13]; HCT-116, read-out: IC50 HCT116): 5.24 |
| O=C(CSc1nc2ccccc2n1C(=O)c1ccccc1)Nc1ccc(Cl)cc1[N+](=O)[O-] [Compound 11, 2-(1-Benzoyl-1H-benzo[d]imidazol-2-ylthio)-N-(4-chloro-2-nitrophenyl)acetamide] | 27 (≈ 12.6 µg/mL) | > 50 | 50 (≈ 107 µM) | 50 (≈ 107 µM) | 50 (≈ 107 µM) | 50 (≈ 107 µM) | > 50 | > 50 | 10 | 15 (≈ 32.1 µM) | 28 (≈ 60 µM) | 3.79 | 4.63 | 0.027 | 27 (≈ 12.6 µg/mL) | 27 (≈ 12.6 µg/mL) | 27 (≈ 12.6 µg/mL) | 27 (≈ 12.6 µg/mL) | 13 (≈ 6.07 µg/mL) | 27 (≈ 12.6 µg/mL) |  |
| O=C(CSc1nc2ccccc2n1C(=O)c1ccccc1)Nc1ccc(Br)cc1 [Compound 9, 2-(1-Benzoyl-1H-benzo[d]imidazol-2-ylthio)-N-(4-bromophenyl)acetamide] | 27 (≈ 12.6 µg/mL) | > 50 | > 50 | > 50 | > 50 | 50 (≈ 107 µM) | > 50 | 50 (≈ 107 µM) | 8 | 17.8 (≈ 38.2 µM) | 28.1 (≈ 60.3 µM) | < 3.67 | 4.19 | 0.027 | 27 (≈ 12.6 µg/mL) | 27 (≈ 12.6 µg/mL) | 27 (≈ 12.6 µg/mL) | 27 (≈ 12.6 µg/mL) | 13 (≈ 6.06 µg/mL) | 27 (≈ 12.6 µg/mL) |  |
